Data on 13 molecules can be found in ChEMBL document CHEMBL1201862, “PubChem BioAssay data set” (2004).

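Following 48 hours of exposure in 96-well plates, responses at five concentrations were used to interpolate endpoints linearly. Abbreviation: GI50, concentration required for 50% inhibition of growth.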 Calls of active or inactive are those of the source. No stated cut-off is given here; in the data, active = GI50 up to about 1.1 µM and inactive = higher.

Some test systems named below: MCF7; K562; T47D; CCRF-CEM; MDA-MB-435; SK-MEL-28; A498; SK-MEL-2; NCI-H23; COLO 205; OVCAR-4; LOX IMVI; RXF 393; UO-31; CAKI-1; HT-29; HOP-92.
Experiment in all cases: NCI tumour cell line growth inhibition, 48 h

On to `CC(=O)OC[C@@H](OC(C)=O)[C@H](OC(C)=O)[C@@H]1OC(C)(C)O[C@@H]1C1SCCCS1`, for which the GI50 with MCF7, in the assay with K562, in the assay with T47D, in the assay with CCRF-CEM, in the assay with MDA-MB-435 and in the assay on SK-MEL-28 was > 100 µM (inactive) each time. Besides, the GI50 in the assay on A498, in the assay on SK-MEL-2, in the assay on NCI-H23, in the assay on COLO 205, with OVCAR-4 and in the assay with LOX IMVI was > 100 µM (inactive) in each case. In addition, the GI50 with RXF 393, in the assay on UO-31 and with CAKI-1 was > 100 µM (inactive) each time.
For the molecule `CCn1c(SCC(=O)NNC(=S)Nc2ccc(Cl)cc2)nc2ccccc2c1=O`, the GI50 is 56.2 µM (inactive) in the assay with MCF7; 30.3 µM (inactive) in the assay on K562; 35.8 µM (inactive) in the assay with T47D; 33.1 µM (inactive) in the assay on CCRF-CEM; 42.1 µM (inactive) with MDA-MB-435; 56.6 µM (inactive) in the assay with SK-MEL-28. Moreover, the GI50 in the assay with A498 is 46.9 µM (inactive); with SK-MEL-2, 74.8 µM (inactive); in the assay on NCI-H23, 45.3 µM (inactive); in the assay on COLO 205 it was 70 µM (inactive); with OVCAR-4, 40 µM (inactive); in the assay on LOX IMVI, 30.1 µM (inactive). Moreover, the GI50 in the assay with RXF 393 is 26.2 µM (inactive); in the assay with UO-31 it was 32 µM (inactive); in the assay on CAKI-1, 43.9 µM (inactive).
`Cc1ccc(O)c(C(c2cccc(C(c3cc(C)ccc3O)c3cc(C)ccc3O)c2)c2cc(C)ccc2O)c1`: the GI50 with MCF7 is 1.58 µM (inactive); in the assay on K562 it was 1.81 µM (inactive); in the assay with T47D, 1.98 µM (inactive); in the assay with HT-29 it was 1.66 µM (inactive); with CCRF-CEM, 2.38 µM (inactive); in the assay with MDA-MB-435 it was 1.75 µM (inactive). In addition, the GI50 is 1.83 µM (inactive) with SK-MEL-28; 1.53 µM (inactive) with A498; 2.1 µM (inactive) in the assay on SK-MEL-2; 1.75 µM (inactive) in the assay on NCI-H23; 1.21 µM (inactive) in the assay with COLO 205; 2.22 µM (inactive) in the assay with OVCAR-4. In addition, the GI50 in the assay on LOX IMVI is 1.54 µM (inactive); in the assay on RXF 393, 1.69 µM (inactive); in the assay on UO-31 it was 1.91 µM (inactive); in the assay on CAKI-1, 1.52 µM (inactive).
Consider `C1=C[C@@H]2c3ccc4cnccc4c3NC[C@@H]2C1`, for which the GI50 in the assay on MCF7, in the assay with K562, with T47D, in the assay on CCRF-CEM, with MDA-MB-435 and in the assay on SK-MEL-28 was > 100 µM (inactive) each time. In addition, the GI50 with HOP-92 was 75.2 µM (inactive); in the assay on A498 it was 33.6 µM (inactive); with NCI-H23 it was > 100 µM (inactive); with COLO 205, > 100 µM (inactive); with RXF 393 it was > 100 µM (inactive); in the assay with UO-31, 74.3 µM (inactive).
In the case of `COC(=O)CCCC(=O)NC1=C(Nc2ccccc2)C(=O)c2ccccc2C1=O`, the GI50 with MCF7 was 15.4 µM (inactive); in the assay on K562, 19.2 µM (inactive); in the assay with T47D it was 24.3 µM (inactive); in the assay with CCRF-CEM, 22.8 µM (inactive); with MDA-MB-435, 5.51 µM (inactive); in the assay with SK-MEL-28, 16.7 µM (inactive). Moreover, the GI50 in the assay with HOP-92 was 21.8 µM (inactive); in the assay on A498 it was 16.9 µM (inactive); in the assay on SK-MEL-2, 18.1 µM (inactive); in the assay with NCI-H23 it was 10.6 µM (inactive); in the assay on COLO 205, 16.3 µM (inactive); with OVCAR-4, 19.3 µM (inactive). For the same molecule, the GI50 in the assay with LOX IMVI is 17.4 µM (inactive); in the assay with UO-31, 21.2 µM (inactive); in the assay on CAKI-1, 20.1 µM (inactive).
As for `NC(Cc1ccc(S(=O)(=O)O)cc1)C(=O)NC(Cc1ccc(S(=O)(=O)O)cc1)C(=O)O` (stereo not drawn), the GI50 was > 100 µM (inactive) in the assay on MCF7; 0.0475 µM (active) in the assay on K562; > 100 µM (inactive) in the assay on T47D; > 100 µM (inactive) in the assay with HT-29; > 100 µM (inactive) in the assay with CCRF-CEM; > 100 µM (inactive) in the assay on MDA-MB-435. Also, the GI50 with SK-MEL-28, with A498, in the assay with SK-MEL-2, in the assay with NCI-H23, in the assay with COLO 205 and in the assay on OVCAR-4 was > 100 µM (inactive) each time. Further, the GI50 with LOX IMVI, with RXF 393, in the assay on UO-31 and with CAKI-1 was > 100 µM (inactive) each time.
As to `CC(C)(C)OC(=O)Nc1cc(-c2ccccc2)co1`, the GI50 is 83.8 µM (inactive) with MCF7; 67 µM (inactive) in the assay on K562; 38.4 µM (inactive) in the assay on T47D; 51.8 µM (inactive) with CCRF-CEM; 94 µM (inactive) in the assay with MDA-MB-435; > 100 µM (inactive) in the assay on SK-MEL-28. The GI50 in the assay on HOP-92 was 25.8 µM (inactive); in the assay with A498, > 100 µM (inactive); in the assay with SK-MEL-2 it was 71.1 µM (inactive); in the assay with NCI-H23 it was > 100 µM (inactive); in the assay on COLO 205, > 100 µM (inactive); with OVCAR-4 it was > 100 µM (inactive). For the same molecule, the GI50 in the assay with LOX IMVI, in the assay on UO-31 and in the assay on CAKI-1 was > 100 µM (inactive) each time.
Consider `CCOc1ccc(-n2nnc3c(N)nc(N)nc32)cc1`, for which the GI50 in the assay on MCF7, with K562, with T47D, in the assay on HT-29, in the assay on CCRF-CEM and in the assay on MDA-MB-435 was > 100 µM (inactive) throughout. Besides, the GI50 in the assay with SK-MEL-28, with HOP-92, in the assay on A498, in the assay on SK-MEL-2, in the assay with NCI-H23 and with COLO 205 was > 100 µM (inactive) in each case. For the same molecule, the GI50 in the assay on OVCAR-4, in the assay with LOX IMVI and in the assay on CAKI-1 was > 100 µM (inactive) each time.
Take `CC(=O)c1ccc(-c2oc(-c3ccccc3)cc2-c2ccc3c(c2)OCO3)s1`: the GI50 with MCF7 was 59 µM (inactive); in the assay with K562, > 100 µM (inactive); in the assay on T47D it was 17 µM (inactive); in the assay with HT-29, > 100 µM (inactive); in the assay on CCRF-CEM, 0.0313 µM (active); with MDA-MB-435 it was 3.07 µM (inactive). Moreover, the GI50 in the assay with HOP-92 was > 100 µM (inactive); with A498, > 100 µM (inactive); with NCI-H23, 19.1 µM (inactive); in the assay with COLO 205 it was > 100 µM (inactive); in the assay on RXF 393, > 100 µM (inactive); with UO-31, > 100 µM (inactive). Moreover, in the assay on CAKI-1, the GI50 was 2.42 µM (inactive).
Turning to `COC(=O)[C@@]12CC3CN(Cc4c1[nH]c1ccccc41)C2CC3=O`, the GI50 with MCF7, in the assay with K562, in the assay on T47D, with HT-29, with CCRF-CEM and in the assay on MDA-MB-435 was > 100 µM (inactive) each time. Besides, the GI50 in the assay with SK-MEL-28 is > 100 µM (inactive); in the assay with HOP-92, 26.7 µM (inactive); in the assay with SK-MEL-2 it was > 100 µM (inactive); in the assay with NCI-H23, > 100 µM (inactive); in the assay on COLO 205, > 100 µM (inactive); in the assay on OVCAR-4, > 100 µM (inactive). The GI50 with LOX IMVI, in the assay on RXF 393 and in the assay on CAKI-1 was > 100 µM (inactive) each time.
For the molecule `CCOC(=O)C(NC(=O)c1ccccc1)(N1CCOCC1)C(F)(F)F` (stereo not drawn), the GI50 in the assay with MCF7, in the assay with K562, in the assay on T47D, in the assay on HT-29, in the assay with CCRF-CEM and with MDA-MB-435 was > 100 µM (inactive) each time. Besides, the GI50 in the assay on SK-MEL-28, in the assay on HOP-92, with SK-MEL-2, in the assay on NCI-H23, in the assay with COLO 205 and in the assay on OVCAR-4 was > 100 µM (inactive) each time. The GI50 with LOX IMVI, with RXF 393, in the assay on UO-31 and in the assay on CAKI-1 was > 100 µM (inactive) in each case.
`CC1=NC2(CCCCC2)N(Cl)C(=O)C1SC#N` (stereo not drawn): the GI50 in the assay on MCF7 is 23.6 µM (inactive); with K562 it was 9.46 µM (inactive); in the assay on T47D it was 21.6 µM (inactive); with HT-29 it was 20.7 µM (inactive); in the assay on CCRF-CEM it was 2.58 µM (inactive); in the assay with MDA-MB-435, 19.2 µM (inactive). The GI50 was 18 µM (inactive) in the assay with SK-MEL-28; > 100 µM (inactive) in the assay on A498; 20 µM (inactive) in the assay on SK-MEL-2; 25.1 µM (inactive) in the assay on NCI-H23; 63.1 µM (inactive) with COLO 205; 20.8 µM (inactive) with OVCAR-4. The GI50 was 10.7 µM (inactive) with LOX IMVI, 18.3 µM (inactive) in the assay on RXF 393 and 18.8 µM (inactive) in the assay on UO-31.
With `Cc1cc(S(=O)(=O)Nc2nc(N)n(-c3ccccn3)n2)c(S)cc1Cl`, the GI50 in the assay with MCF7, with K562, with T47D, in the assay with HT-29, in the assay on CCRF-CEM and in the assay with MDA-MB-435 was > 100 µM (inactive) in each case. Further, the GI50 in the assay with SK-MEL-28, in the assay on A498, in the assay on SK-MEL-2, with COLO 205, with OVCAR-4 and in the assay with LOX IMVI was > 100 µM (inactive) throughout. In addition, the GI50 in the assay with RXF 393, with UO-31 and in the assay on CAKI-1 was > 100 µM (inactive) in each case.
